Laboratory results as given in ChEMBL document CHEMBL3526091, “Pharmacokinetics, metabolism, and excretion of the glycogen synthase kinase-3 inhibitor LY2090314 in rats, dogs, and humans: a case study in rapid clearance by extensive metabolism with low circulating metabolite exposure” (Drug Metab Dispos, 2013).

Columns and labels:
[1] = Drug recovery in bile duct-cannulated Sprague-Dawley rat cage/carcass at 5 mg/kg, iv administered for 30 mins during 0 to 168 hrs time interval by radio analysis; format: ADME, organism-based; set-up: dose 5 mg/kg, dosed compound name [14C]LY2090314, route intravenous; conditions: in vivo
[2] = tested on: Rattus norvegicus; experiment: Total drug recovery in bile duct-cannulated Sprague-Dawley rat at 5 mg/kg, iv administered for 30 mins during 0 to 12 hrs time interval by radio analysis; format: ADME, organism-based; set-up: dose 5 mg/kg, dosed compound name [14C]LY2090314, route intravenous; conditions: in vivo
[3] = tested on: Rattus norvegicus; experiment: Total drug recovery in bile duct-cannulated Sprague-Dawley rat at 5 mg/kg, iv administered for 30 mins during 0 to 168 hrs time interval by radio analysis; format: ADME, organism-based; set-up: dose 5 mg/kg, dosed compound name [14C]LY2090314, route intravenous; conditions: in vivo
[4] = Drug metabolism in Mrp2 knockout Sprague-Dawley rat urine at 5 mg/kg, iv administered for 30 mins; format: ADME, organism-based; set-up: dose 5 mg/kg, dosed compound name LY2090314, route intravenous; conditions: in vivo, 0.5 h
[5] = Drug recovery in Sprague-Dawley rat feces at 5 mg/kg, iv administered for 30 mins during 48 hrs time interval by radio analysis; format: ADME, organism-based; set-up: dose 5 mg/kg, dosed compound name [14C]LY2090314, route intravenous; conditions: in vivo
[6] = Drug recovery in Sprague-Dawley rat feces at 5 mg/kg, iv administered for 30 mins during 0 to 24 hrs time interval by radio analysis; format: ADME, organism-based; set-up: dose 5 mg/kg, dosed compound name [14C]LY2090314, route intravenous; conditions: in vivo
[7] = Drug recovery in Sprague-Dawley rat urine at 5 mg/kg, iv administered for 30 mins during 0 to 24 hrs time interval by radio analysis; format: ADME, organism-based; set-up: dose 5 mg/kg, dosed compound name [14C]LY2090314, route intravenous; conditions: in vivo
[8] = tested on: Rattus norvegicus; experiment: Drug recovery in Sprague-Dawley rat cage at 5 mg/kg, iv administered for 30 mins during 0 to 24 hrs time interval by radio analysis; format: ADME, organism-based; set-up: dose 5 mg/kg, dosed compound name [14C]LY2090314, route intravenous; conditions: in vivo
[9] = tested on: Canis familiaris; experiment: Drug recovery in beagle dog cage at 5 mg/kg, iv administered for 30 mins during 0 to 168 hrs time interval by radio analysis; format: ADME, organism-based, Canis lupus familiaris; set-up: dose 5 mg/kg, dosed compound name [14C]LY2090314, route intravenous; conditions: in vivo
[10] = tested on: Canis familiaris; experiment: Total drug recovery in beagle dog at 5 mg/kg, iv administered for 30 mins during 0 to 168 hrs time interval by radio analysis; format: ADME, organism-based, Canis lupus familiaris; set-up: dose 5 mg/kg, dosed compound name [14C]LY2090314, route intravenous; conditions: in vivo
[11] = AUC (0 to infinity) in beagle dog at 5 mg/kg, iv administered for 30 mins; format: ADME, organism-based, Canis lupus familiaris; set-up: time infinity, dose 5 mg/kg, dosed compound name [14C]LY2090314, route intravenous; conditions: plasma
[12] = Clearance in beagle dog at 5 mg/kg, iv administered for 30 mins; format: ADME, organism-based, Canis lupus familiaris; set-up: dose 5 mg/kg, dosed compound name [14C]LY2090314, route intravenous; conditions: in vivo
[13] = tested on: Canis familiaris; experiment: Tmax in beagle dog assessed as total radioactivity at 5 mg/kg, iv administered for 30 mins; format: ADME, organism-based, Canis lupus familiaris; set-up: dose 5 mg/kg, dosed compound name [14C]LY2090314, route intravenous; conditions: in vivo, 0.5 h
[14] = tested on: Canis familiaris; experiment: Clearance in beagle dog assessed as total radioactivity at 5 mg/kg, iv administered for 30 mins; format: ADME, organism-based, Canis lupus familiaris; set-up: dose 5 mg/kg, dosed compound name [14C]LY2090314, route intravenous; conditions: in vivo, 0.5 h
[15] = tested on: Rattus norvegicus; experiment: AUC (0 to infinity) in Sprague-Dawley rat assessed as total radioactivity at 5 mg/kg, iv administered for 30 mins; format: ADME, organism-based, Plasma; set-up: dose 5 mg/kg, dosed compound name [14C]LY2090314, route intravenous, time infinity; conditions: in vivo, 0.5 h
[16] = AUC (0 to infinity) in Sprague-Dawley rat at 5 mg/kg, iv administered for 30 mins; format: ADME, organism-based; set-up: time infinity, dose 5 mg/kg, dosed compound name [14C]LY2090314, route intravenous; conditions: plasma
[17] = Tmax in Sprague-Dawley rat at 5 mg/kg, iv administered for 30 mins; format: ADME, organism-based; set-up: dose 5 mg/kg, dosed compound name [14C]LY2090314, route intravenous; conditions: in vivo
[18] = Drug recovery in beagle dog feces at 5 mg/kg, iv administered for 30 mins during 0 to 24 hrs time interval by radio analysis; format: ADME, organism-based, Canis lupus familiaris; set-up: dose 5 mg/kg, dosed compound name [14C]LY2090314, route intravenous; conditions: in vivo
[19] = Drug recovery in beagle dog feces at 5 mg/kg, iv administered for 30 mins during 0 to 168 hrs time interval by radio analysis; format: ADME, organism-based, Canis lupus familiaris; set-up: dose 5 mg/kg, dosed compound name [14C]LY2090314, route intravenous; conditions: in vivo
[20] = Drug recovery in beagle dog urine at 5 mg/kg, iv administered for 30 mins during 0 to 24 hrs time interval by radio analysis; format: ADME, organism-based, Canis lupus familiaris; set-up: dose 5 mg/kg, dosed compound name [14C]LY2090314, route intravenous; conditions: in vivo
[21] = Plasma protein binding in rat; format: ADME, cell-free; set-up: dosed compound name [14C]LY2090314; conditions: read-out: PPB (converted)
[22] = Drug metabolism in Bcrp knockout Sprague-Dawley rat urine at 5 mg/kg, iv administered for 30 mins; format: ADME, organism-based; set-up: dose 5 mg/kg, dosed compound name LY2090314, route intravenous; conditions: in vivo, 0.5 h
[23] = Cmax in cancer patient at 10 mg for 60 mins treated 1/1 cycle/day; format: ADME, organism-based; set-up: dose 10 mg, dosed compound name LY2090314; conditions: human, in vivo
[24] = Cmax in cancer patient at 40 mg for 60 mins treated 1/1 cycle/day; format: ADME, organism-based; set-up: dose 40 mg, dosed compound name LY2090314; conditions: human, in vivo
[25] = Cmax in cancer patient at 60 mg for 60 mins treated 1/1 cycle/day; format: ADME, organism-based; set-up: dose 60 mg, dosed compound name LY2090314; conditions: human, in vivo
[26] = Cmax in cancer patient at 80 mg for 60 mins treated 1/1 cycle/day; format: ADME, organism-based; set-up: dose 80 mg, dosed compound name LY2090314; conditions: human, in vivo
[27] = Cmax in cancer patient at 120 mg for 60 mins treated 1/1 cycle/day; format: ADME, organism-based; set-up: dose 120 mg, dosed compound name LY2090314; conditions: human, in vivo
[28] = Cmax in cancer patient at 120 mg for 60 mins treated 1/8 cycle/day; format: ADME, organism-based; set-up: dose 120 mg, dosed compound name LY2090314; conditions: human, in vivo
[29] = Tmax in cancer patient at 80 mg for 60 mins treated 1/1 cycle/day; format: ADME, organism-based; set-up: dosed compound name LY2090314; conditions: human, in vivo
[30] = Tmax in cancer patient at 120 mg for 60 mins treated 1/1 cycle/day; format: ADME, organism-based; set-up: dosed compound name LY2090314; conditions: human, in vivo
[31] = organism: Homo sapiens; experiment: Drug recovery in cancer patient at 80 to 120 mg for 60 mins; format: ADME, organism-based; set-up: dosed compound name LY2090314; conditions: in vivo, 1 h
[32] = Drug recovery in bile duct-cannulated Sprague-Dawley rat urine at 5 mg/kg, iv administered for 30 mins during 0 to 12 hrs time interval by radio analysis; format: ADME, organism-based; set-up: dose 5 mg/kg, dosed compound name [14C]LY2090314, route intravenous; conditions: in vivo
[33] = Drug recovery in bile duct-cannulated Sprague-Dawley rat bile at 5 mg/kg, iv administered for 30 mins during 0 to 168 hrs time interval by radio analysis; format: ADME, organism-based; set-up: dose 5 mg/kg, dosed compound name [14C]LY2090314, route intravenous; conditions: in vivo
[34] = AUC (0 to infinity) in cancer patient at 120 mg for 60 mins treated 1/1 cycle/day; format: ADME, organism-based; set-up: dose 120 mg, time infinity, dosed compound name LY2090314; conditions: human, plasma
[35] = AUC (0 to infinity) in cancer patient at 10 mg for 60 mins treated 2/1 cycle/day; format: ADME, organism-based; set-up: dose 10 mg, time infinity, dosed compound name LY2090314; conditions: human, plasma
[36] = AUC (0 to infinity) in cancer patient at 60 mg for 60 mins treated 1/8 cycle/day; format: ADME, organism-based; set-up: dose 60 mg, time infinity, dosed compound name LY2090314; conditions: human, plasma
[37] = Clearance in cancer patient at 20 mg for 60 mins treated 1/1 cycle/day; format: ADME, organism-based; set-up: dosed compound name LY2090314; conditions: human, in vivo
[38] = Clearance in cancer patient at 80 mg for 60 mins treated 1/1 cycle/day; format: ADME, organism-based; set-up: dosed compound name LY2090314; conditions: human, in vivo
[39] = Volume of distribution at steady state in cancer patient at 40 mg for 60 mins treated 1/1 cycle/day; format: ADME, organism-based; set-up: dosed compound name LY2090314; conditions: human, in vivo, read-out: Vdss
[40] = Volume of distribution at steady state in cancer patient at 60 mg for 60 mins treated 1/1 cycle/day; format: ADME, organism-based; set-up: dosed compound name LY2090314; conditions: human, in vivo, read-out: Vdss
[41] = Half life in cancer patient at 20 mg for 60 mins treated 1/1 cycle/day; format: ADME, organism-based; set-up: dosed compound name LY2090314; conditions: human, in vivo
[42] = Half life in cancer patient at 60 mg for 60 mins treated 1/1 cycle/day; format: ADME, organism-based; set-up: dosed compound name LY2090314; conditions: human, in vivo
[43] = Half life in cancer patient at 10 mg for 60 mins treated 2/1 cycle/day; format: ADME, organism-based; set-up: dosed compound name LY2090314; conditions: human, in vivo
[44] = Half life in cancer patient at 20 mg for 60 mins treated 2/1 cycle/day; format: ADME, organism-based; set-up: dosed compound name LY2090314; conditions: human, in vivo
[45] = Tmax in cancer patient at 120 mg for 60 mins treated 1/8 cycle/day; format: ADME, organism-based; set-up: dosed compound name LY2090314; conditions: human, in vivo

- Radiolabel recovery [1]: 0.31%
- Radiolabel recovery [2]: 87%
- Radiolabel recovery [3]: 94.9%
- Drug metabolism [4]: metabolite_detected
- Radiolabel recovery [5]: 65.8%
- Radiolabel recovery [6]: 91.8%
- Radiolabel recovery [7]: 0.73%
- Radiolabel recovery [8]: 0.07%
- Radiolabel recovery [9]: 3.22%
- Radiolabel recovery [10]: 93%
- AUC(0-inf) [11]: 3.23 µg·h/mL
- clearance [12]: 1.67 L/h/kg
- Tmax [13]: 0.5 h
- CL [14]: 0.337 L/h/kg
- AUC [15]: 1.79 µg·h/mL
- AUC(0-inf) [16]: 1.26 µg·h/mL
- Tmax [17]: 0.5 h
- Radiolabel recovery [18]: 39.8%
- Radiolabel recovery [19]: 69.2%
- Radiolabel recovery [20]: 19.8%
- fraction unbound [21]: 0.02
- Drug metabolism [22]: metabolite_detected
- Cmax [23]: 0.122 µg/mL
- Cmax [24]: 0.603 µg/mL
- Cmax [25]: 0.881 µg/mL
- Cmax [26]: 0.898 µg/mL
- Cmax [27]: 1.7 µg/mL
- Cmax [28]: 0.768 µg/mL
- Tmax [29]: 1 h
- Tmax [30]: 0.98 h
- Compound recovery [31]: 1.6%
- Radiolabel recovery [32]: 1.82%
- Radiolabel recovery [33]: 85.8%
- AUC(0-inf) [34]: 3.31 µg·h/mL
- AUC(0-inf) [35]: 0.192 µg·h/mL
- AUC(0-inf) [36]: 1.57 µg·h/mL
- clearance [37]: 782 mL/min
- clearance [38]: 747 mL/min
- Vd [39]: 79.3 L
- Vd [40]: 76.8 L
- half-life [41]: 1.84 h
- half-life [42]: 3.15 h
- half-life [43]: 2.44 h
- half-life [44]: 1.92 h
- Tmax [45]: 0.5 h
SMILES: O=C1NC(=O)C(c2cnc3ccccn23)=C1c1cn2c3c(cc(F)cc13)CN(C(=O)N1CCCCC1)CC2 [LY-2090314]
